Each structure is given as a SMILES string.

This experiment has as its system Spontaneously hypertensive rats (SHR). Put plainly: Animal Test (2): 8-week feeding, weekly blood pressure in SHR. Conditions: PC group, 1 mg/kg. The format is in vivo, rat. As for the experimental part: Six-week-old spontaneously hypertensive rats (SHR) were divided into 5 groups, each receiving the corresponding treatment stated below: • Negative control group (NC group): feeding with water • Positive control group (PC group): feeding with hypertension drug Captopril at 1 mg/kg • Low-dose group (L group): feeding with the peptide composition disclosed herein at a dose of 50 mg/kg • Medium-dose group (M group): feeding with the peptide composition disclosed herein at a dose of 100 mg/kg • High-dose group (H group): feeding with the peptide composition disclosed herein at a dose of 200 mg/kg
The experiment lasted for a total of 8 weeks.

In turn, `C[C@H](CS)C(=O)N1CCC[C@H]1C(=O)O` [Captopril] showed a Diastolic blood pressure (Week 0) of 80.2 ± 6.5 mmHg; a Diastolic blood pressure (Week 1) of 79.9 ± 6.3 mmHg; a Diastolic blood pressure (Week 2) of 79.0 ± 5.3 mmHg; a Diastolic blood pressure (Week 3) of 78.9 ± 6.4 mmHg; a Diastolic blood pressure (Week 4) of 78.9 ± 3.9 mmHg; a Diastolic blood pressure (Week 5) of 78.8 ± 3.8 mmHg. The Diastolic blood pressure is, setting by setting: (Week 6) 78.8 ± 3.2 mmHg; (Week 7) 78.8 ± 5.0 mmHg; (Week 8) 78.8 ± 2.9 mmHg. Further, the Systolic blood pressure by setting is: (Week 0) 111.0 ± 7.2 mmHg; (Week 1) 110.2 ± 5.8 mmHg; (Week 2) 108.8 ± 4.2 mmHg; (Week 3) 108.6 ± 4.3 mmHg; (Week 4) 108.4 ± 3.9 mmHg; (Week 5) 108.1 ± 4.1 mmHg. Moreover, the Systolic blood pressure by setting is: (Week 6) 108.1 ± 2.0 mmHg; (Week 7) 108.0 ± 3.1 mmHg; (Week 8) 108.0 ± 2.5 mmHg.

These data come from patent US20260000728A1, “PEPTIDE HAVING ACE INHIBITORY ACTIVITY AND COMPOSITION CONTAINING THE SAME” (Vedan International (Holdings) Limited, priority 2024, published 2026).
